Tests used:
[1] = target: T1, norepinephrine (NE) uptake (Rattus norvegicus, UniProt Q63380); assay: Norepinephrine (NE) uptake inhibitory activity using rat brain synaptosome; assay type: biochemical; settings: rat hippocampus synaptosome, tritium-labeled NE 12 nM; read-out: IC50 (nM), norepinephrine (NE) uptake inhibition
T1 construct: used as crude synaptosomal fraction; from tissue; host or cells: rat hippocampus, crude synaptosomal fraction
Experimental: Male Wistar rats were decapitated, each brain was removed, and the hippocampus was cut out. […] The homogenate was centrifuged at 1000 g at 4° C. for 10 minutes, and the supernatant was further centrifuged at 20000 g at 4° C. for 20 minutes. The pellet was suspended in an incubation buffer (20 mM Hepes buffer (pH 7.4) containing 10 mM glucose, 145 mM sodium chloride, 4.5 mM potassium chloride, 1.2 mM magnesium chloride and 1.5 mM calcium chloride) and used as crude synaptosomal fraction.
Each well of a 96-well round-bottom plate was used for the uptake reaction in a total volume of 200 μL solution containing purgurin (final concentration 10 μM) and ascorbic acid (final concentration 0.2 mg/mL).
After 10 minutes, the uptake reaction was terminated by suction filtration onto a 96-well glass fiber filter plate. The filters were rinsed with cold physi-ological saline solution, dried thoroughly, and micro scintillation 0 (Perkin-Elmer) was added thereto. Then, the residual radioactivity on the filters was measured.
The uptake value when only solvent was added was set as 100%, the uptake value when unlabeled NE (final concentration 10 μM) was added as 0% (nonspecific uptake value), and the 50% inhibitory concentration was calculated from the concentration of the test compound and its inhibitory activity.

[2] = Metabolic stability test (human liver microsome, hepatic intrinsic clearance); assay type: in vitro ADME; settings: human liver microsomes, pH 7.4; human liver microsome 0.2 mg/mL, test compound 0.001 mmol/L, 37° C., 0, 10 and 20 minutes
Experimental: A metabolic reaction was initiated by adding and mixing a test compound solution (final concentration 0.001 mmol/L) and a NADH/NADPH solution (final concentration 1 mmol/L) to a human liver microsome solution (final concentration 100 mmol/L potassium phosphate buffer solution (pH 7.4), 5 mmol/L magnesium chloride, 0.2 mg/ml, human liver microsome). A solution of the internal standard in methanol was prepared and used as a quenching solution.
Specifically, a metabolic reaction was initiated by adding and mixing 2.5 μL of a solution of a test compound in acetonitrile to 222.5 μL of a human liver microsome solution in ice water, followed by preincubation at 37° C. for 1 minute, and then adding 25 μL of a NADH/NADPH solution thereto.
(§1) The mixture was centrifuged (6130 g, 4° C., 10 minutes) and the supernatant was used as a sample for LC-MS/MS.
Peak area ratio ([peak area of test compound]/[peak area of internal standard]) was calculated for the test compound and the internal standard.
The residual ratio of the test compound was calculated from ([Ratio of peak areas at each reaction time]/[Ratio of peak areas at 0 minute reaction time]).

CYP3A4 = target: T2, CYP3A4 (Homo sapiens, UniProt P08684); assay: CYP inhibition test (1): inhibition rate (%) at one concentration, CYP3A4; assay type: in vitro ADME; settings: human liver microsomes, pH 7.4, probe midazolam (0.005 mmol/L); test compound 0.01 mmol/L, human liver microsome 0.1 mg/mL, substrate midazolam, 37° C. 10 minutes; read-out: inhibition rate (%) 3A4
T2 construct: a human liver microsome solution containing three CYP-specific substrates; from tissue; host or cells: human liver microsomes
T2 sequence (P08684 whole entry): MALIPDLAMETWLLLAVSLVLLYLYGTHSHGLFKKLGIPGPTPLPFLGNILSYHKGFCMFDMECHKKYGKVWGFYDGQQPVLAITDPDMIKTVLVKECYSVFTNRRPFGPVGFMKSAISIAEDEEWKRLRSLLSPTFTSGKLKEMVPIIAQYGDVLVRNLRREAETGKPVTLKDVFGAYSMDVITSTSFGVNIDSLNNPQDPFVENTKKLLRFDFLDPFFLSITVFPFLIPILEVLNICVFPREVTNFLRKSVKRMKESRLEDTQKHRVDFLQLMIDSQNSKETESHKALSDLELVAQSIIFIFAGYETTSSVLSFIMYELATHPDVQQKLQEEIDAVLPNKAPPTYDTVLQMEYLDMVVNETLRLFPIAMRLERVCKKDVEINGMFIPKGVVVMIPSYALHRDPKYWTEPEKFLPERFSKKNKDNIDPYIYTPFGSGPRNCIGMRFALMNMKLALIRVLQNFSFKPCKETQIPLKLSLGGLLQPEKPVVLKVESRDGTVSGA
Experimental: (§2) A metabolic reaction was initiated by adding and mixing a test compound solution (final concentration 0.01 mmol/L) and a NADH/NADPH solution (final concentration 1 mmol/L) to a human liver microsome solution containing three CYP-specific substrates (final concentration 100 mmol/L potassium phosphate buffer solution (pH 7.4), 5 mmol/L magnesium chloride, 0.1 mg/mL human liver microsome, 0.005 mmol/L diclofenac (for CYP2C9), 0.01 mmol/L bufuralol (for […]), 0.005 mmol/L midazolam (for CYP3A4)). As an internal standard solution, a solution of each of stable isotopes of the metabolites (50 ng/mL [13C6] hydroxy diclofenac, 5 ng/mL [2H9] hydroxy bufuralol, and 5 ng/mL [13C6] hydroxy midazolam (all stable isotopes)) in methanol was prepared and used as a quenching solution.
(§3) Specifically, a metabolic reaction was initiated by adding and mixing 2 μL of a solution of a test compound in acetonitrile (or acetonitrile as a control) to 178 μL of a human liver microsome solution in ice water, followed by preincubation at 37° C. for 1 minute, and then adding 20 μL of a NADH/NADPH solution thereto. After incubation at 37° C. for 10 minutes, 50 μL of the reaction mixture was taken, and then it was added and mixed to 500 μL of a quenching solution to quech the reaction. The mixture was centrifuged (6130 g, 4° C., 10 minutes) and the supernatant was used as a sample for LC-MS/MS.
(§4) Peak area ratio ([peak area of metabolite]/[peak area of corresponding stable isotope]) was calculated for a metabolite and a stable isotope of the metabolite as measurement object. By comparing the peak area ratio of each test compound solution with that of the control, the inhibition rate (%) of each CYP species for each test compound was calculated from (1-[peak area ratio of each test compound solution]/[peak area ratio of control])×100.

CYP2D6 = target: T3, CYP2D6 (Homo sapiens, UniProt P10635); assay: CYP inhibition test (1): inhibition rate (%) at one concentration, CYP2D6; assay type: in vitro ADME; settings: human liver microsomes, pH 7.4, probe bufuralol (0.01 mmol/L); test compound 0.01 mmol/L, human liver microsome 0.1 mg/mL, substrate bufuralol, 37° C. 10 minutes; read-out: inhibition rate (%) 2D6
T3 construct: a human liver microsome solution containing three CYP-specific substrates; from tissue; host or cells: human liver microsomes
T3 sequence (P10635 whole entry): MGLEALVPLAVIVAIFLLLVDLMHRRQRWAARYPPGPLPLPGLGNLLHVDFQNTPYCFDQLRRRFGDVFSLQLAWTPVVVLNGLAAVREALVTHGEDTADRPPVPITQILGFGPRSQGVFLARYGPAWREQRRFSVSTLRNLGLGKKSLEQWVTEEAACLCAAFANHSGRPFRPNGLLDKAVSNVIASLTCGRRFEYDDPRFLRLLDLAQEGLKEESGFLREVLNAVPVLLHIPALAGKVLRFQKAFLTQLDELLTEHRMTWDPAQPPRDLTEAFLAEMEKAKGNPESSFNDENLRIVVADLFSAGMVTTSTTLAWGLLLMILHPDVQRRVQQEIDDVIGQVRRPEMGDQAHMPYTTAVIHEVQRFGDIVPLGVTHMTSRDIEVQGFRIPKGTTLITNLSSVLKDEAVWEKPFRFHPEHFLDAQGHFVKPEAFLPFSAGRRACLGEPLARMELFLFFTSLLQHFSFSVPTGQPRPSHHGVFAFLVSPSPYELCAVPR
Experimental: as §2, §3, §4

[3] = Protein binding rate test (human serum, equilibrium dialysis); assay type: in vitro ADME; settings: test compound 0.001 mmol/L, equilibrium dialysis 37° C. 6 hours
Experimental: A serum sample was prepared by adding a test compound solution to a human serum (final concentration of the test compound: 0.001 mmol/L). The serum sample and Dulbecco's Phosphate-Buffered Saline (D-PBS(−)) were added to the wells separated by a dialysis membrane to start the reaction. A solution of the internal standard in methanol was prepared and used as a quenching solution.
Specifically, the dialysis membrane (cut-off molecular weight 12000-14000) was pre-conditioned by immersing it in distilled water, followed by 20% ethanol. Then, the membrane was washed with D-PBS(−) and set in an equilibrium dialysis kit. Then, 150 μL of D-PBS(−) was added to one part of each well divided by the dialysis membrane, and 150 μL of serum sample was added to the other part. After sealing all wells and incubation at 37° C. for 6 hours, 30 μL from the serum side and 90 μL from the PBS side of each well were collected and mixed with 90 μL of D-PBS(−) or 30 μL of blank serum and 480 μL of a quenching solution to quench the reaction.
as §1
Peak area ratio ([peak area of test compound]/[peak area of internal standard]) was calculated for the test compound and the internal standard. By comparing the peak area ratio of the PBS side for each test compound with that of the serum side, the protein binding rate (%) of each test compound was calculated from (1-[peak area ratio of PBS side]/[peak area ratio of serum side])×100.

T1 sequence (Q63380 1-617): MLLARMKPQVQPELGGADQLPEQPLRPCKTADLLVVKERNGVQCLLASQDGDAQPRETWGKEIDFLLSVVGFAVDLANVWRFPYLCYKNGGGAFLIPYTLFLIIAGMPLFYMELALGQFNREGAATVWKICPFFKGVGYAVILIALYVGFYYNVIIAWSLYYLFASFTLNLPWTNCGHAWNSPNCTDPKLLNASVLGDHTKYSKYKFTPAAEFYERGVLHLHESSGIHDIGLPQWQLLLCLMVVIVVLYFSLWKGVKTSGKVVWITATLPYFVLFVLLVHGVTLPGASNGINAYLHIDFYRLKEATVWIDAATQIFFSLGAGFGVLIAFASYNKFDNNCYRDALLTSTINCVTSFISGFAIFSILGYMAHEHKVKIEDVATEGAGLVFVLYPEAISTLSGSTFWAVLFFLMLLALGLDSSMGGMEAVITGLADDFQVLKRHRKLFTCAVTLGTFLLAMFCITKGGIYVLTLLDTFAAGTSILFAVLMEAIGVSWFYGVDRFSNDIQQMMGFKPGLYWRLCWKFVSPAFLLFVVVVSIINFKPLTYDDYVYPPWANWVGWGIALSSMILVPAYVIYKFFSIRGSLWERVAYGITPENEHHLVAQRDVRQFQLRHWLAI

Compound | IC50 [1] | microsomal CLint at 0.001 mmol/L [2] | inhibition at 10 min, 0.01 mmol/L (CYP3A4) | inhibition at 10 min, 0.01 mmol/L (CYP2D6) | fraction unbound at 6 h, 0.001 mmol/L [3]
OCCOc1ccc(N2CC3(CCC3)N[C@H]3CCCC[C@@H]32)cc1 [Example 8] | 37.2 nM | < 50 µL/min/mg | 7.1% | 20.1% | 0.686
COc1cc(N2CC3(CCC3)N[C@H]3CCCC[C@@H]32)ccc1OCCO [Example 11] | 91 nM | < 50 µL/min/mg | -1.3% | 14.2% | 0.767
CC1(C)CN(c2ccc(OC(F)(F)CO)cc2)[C@H]2CCCC[C@@H]2N1 [Example 20, 2-(4-((4aS,8aS)-3,3-dimethyloctahydroquinoxalin-1(2H)-yl)phenoxy)-2,2-difluoroethan-1-ol] | 4.4 nM | < 50 µL/min/mg | – | – | 0.569
CC1(C)CN(c2ccc(OC(F)(F)CO)cc2)[C@@H]2CCCC[C@H]2N1 [Example 21] | 69 nM | < 50 µL/min/mg | – | – | 0.585
COc1cc(N2CC(C)(C)N[C@H]3CCCC[C@@H]32)ccc1OC(F)(F)CO [Example 26] | 21.3 nM | < 50 µL/min/mg | – | – | 0.58
Cc1cc(N2CC(C)(C)N[C@H]3CCCC[C@@H]32)ccc1OC(F)(F)CO [Example 31] | 5.5 nM | < 50 µL/min/mg | – | – | 0.497
Cc1cc(N2CC(C)(C)N[C@@H]3CCCC[C@H]32)ccc1OC(F)(F)CO [Example 32] | 7.5 nM | < 50 µL/min/mg | – | – | 0.482
CN1[C@H]2CCCC[C@@H]2N(c2ccc(OC(F)(F)CO)cc2)CC1(C)C [Example 37, 2,2-difluoro-2-(4-((4aS,8aS)-3,3,4-trimethyloctahydroquinoxalin-1(2H)-yl)phenoxy)ethan-1-ol] | 34.5 nM | < 50 µL/min/mg | – | – | 0.529
Cc1cc(N2CC(C)(C)N[C@@H]3CCCC[C@@H]32)ccc1OC(F)(F)CO [Example 48] | 6.6 nM | < 50 µL/min/mg | -9.2% | -7.8% | 0.413
CC1(C)CN(c2ccc(OCCO)c3occc23)[C@@H]2CCCC[C@@H]2N1 [Example 50] | 5.8 nM | < 50 µL/min/mg | 2% | 41.8% | 0.551

Now from value to compound:

IC50 [1] | microsomal CLint at 0.001 mmol/L [2] | inhibition at 10 min, 0.01 mmol/L (CYP3A4) | inhibition at 10 min, 0.01 mmol/L (CYP2D6) | fraction unbound at 6 h, 0.001 mmol/L [3] | Compound
8.4 nM | < 50 µL/min/mg | 23.3% | 15% | 0.401 | OCCOc1c(F)cc(N2CC3(CCC3)N[C@H]3CCCC[C@@H]32)cc1Cl [Example 6]
8.5 nM | < 50 µL/min/mg | 14.4% | 20.5% | 0.615 | Cc1cc(N2CC3(CCC3)N[C@H]3CCCC[C@@H]32)cc(F)c1OCCO [Example 14]
2.7 nM | < 50 µL/min/mg | – | – | 0.727 | C[C@@H]1CN(c2cc(F)c(OCCO)c(Cl)c2)[C@H]2CCCC[C@@H]2N1 [Example 17, 2-(2-chloro-6-fluoro-4-((3R,4aS,8aS)-3-methyloctahydroquinoxalin-1(2H)-yl)phenoxy)ethan-1-ol 1/2fumarate]
13.3 nM | < 50 µL/min/mg | – | – | 0.741 | C[C@H]1CN(c2cc(F)c(OCCO)c(Cl)c2)[C@H]2CCCC[C@H]2N1 [Example 18]
2.4 nM | < 50 µL/min/mg | 16.1% | 5.9% | 0.471 | C[C@@H]1CN(c2ccc(OC(F)(F)CO)c(Cl)c2)[C@H]2CCCC[C@@H]2N1 [Example 19]
7.7 nM | < 50 µL/min/mg | – | – | 0.585 | CC1(C)CN(c2ccc(OCCO)c(Cl)c2)[C@H]2CCCC[C@@H]2N1 [Example 27, 2-(2-chloro-4-((4aS,8aS)-3,3-dimethyloctahydroquinoxalin-1(2H)-yl)phenoxy)ethan-1-ol]
9.7 nM | < 50 µL/min/mg | – | – | 0.616 | CC1(C)CN(c2ccc(OCCO)c(Cl)c2)[C@@H]2CCCC[C@H]2N1 [Example 28]
5.9 nM | < 50 µL/min/mg | – | – | 0.796 | CC1(C)CN(c2cc(F)c(OCCO)c(F)c2)[C@H]2CCCC[C@@H]2N1 [Example 34, 2-(4-((4aS,8aS)-3,3-dimethyloctahydroquinoxalin-1(2H)-yl)-2,6-difluorophenoxy)ethan-1-ol]
6.8 nM | < 50 µL/min/mg | – | – | 0.776 | CC1(C)CN(c2cc(F)c(OCCO)c(F)c2)[C@@H]2CCCC[C@H]2N1 [Example 35]
5.1 nM | < 50 µL/min/mg | – | – | 0.638 | CC1(C)CN(c2cc(F)c(OCCO)c(F)c2)[C@H]2CCCC[C@H]2N1 [Example 36]
5.2 nM | < 50 µL/min/mg | -10.7% | 10.2% | 0.566 | CC1(C)CN(c2ccc(OCCO)c(Cl)c2)[C@H]2CCCC[C@H]2N1 [Example 44, 2-(2-chloro-4-((4aR,8aS)-3,3-dimethyloctahydroquinoxalin-1(2H)-yl)phenoxy)ethan-1-ol 1/2fumarate]
4.3 nM | < 50 µL/min/mg | 1.1% | 17% | 0.553 | CC1(C)CN(c2ccc(OCCO)c3occc23)[C@H]2CCCC[C@H]2N1 [Example 51]

— US20240409519A1, “HYDROGENATED QUINOXALINES” (OTSUKA PHARMACEUTICAL CO., LTD., priority 2021, published 2024)
